# Test results reported in publication PMC10542159 (bioRxiv, 2023).
# B1: SpeG (Escherichia coli K-12) (protein)
# chain: MPSAHSVKLRPLEREDLRYVHQLDNNASVMRYWFEEPYEAFVELSDLYDKHIHDQSERRFVVECDGEKAGLVELVEINHVHRRAEFQIIISPEYQGKGLATRAAKLAMDYGFTVLNLYKLYLIVDKENEKAIHIYRKLGFSVEGELMHEFFINGQYRNAIRMCIFQHQYLAEHKTPGQTLLKPTAQ
# Assays:
# PA1472 = PA1472 (Pseudomonas aeruginosa, UniProt Q9I3P0)
# [1] = target: T1, spermidine/spermine acetyltransferase 1 (SAT1) (Homo sapiens, UniProt P21673)
# SpeG = target: T2, SpeG (Escherichia coli, UniProt P0A951); assay: continuous spectrophotometric acetyltransferase assay; format: biochemical
# T2 sequence (P0A951 1-186): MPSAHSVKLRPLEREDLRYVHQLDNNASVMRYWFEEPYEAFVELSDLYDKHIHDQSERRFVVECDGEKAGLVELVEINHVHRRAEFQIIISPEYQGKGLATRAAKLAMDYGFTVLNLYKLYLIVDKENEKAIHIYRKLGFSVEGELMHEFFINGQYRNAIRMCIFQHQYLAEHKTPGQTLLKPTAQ
# [2] = target: T1, spermidine/spermine acetyltransferase 1 (SAT1); assay: continuous spectrophotometric acetyltransferase assay, […] spermidine as substrate; format: biochemical
# [3] = substrate: NCCCCNCCCN; assay: continuous spectrophotometric enzyme kinetics; format: biochemical, Escherichia coli; conditions: acetyl-CoA
# T1 sequence (P21673 whole entry): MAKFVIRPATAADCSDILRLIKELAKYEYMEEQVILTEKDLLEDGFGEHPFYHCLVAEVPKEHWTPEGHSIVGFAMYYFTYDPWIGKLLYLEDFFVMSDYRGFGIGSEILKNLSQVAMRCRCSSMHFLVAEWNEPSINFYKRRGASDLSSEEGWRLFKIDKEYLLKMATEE
# PA1472, sequence (Q9I3P0 1-184): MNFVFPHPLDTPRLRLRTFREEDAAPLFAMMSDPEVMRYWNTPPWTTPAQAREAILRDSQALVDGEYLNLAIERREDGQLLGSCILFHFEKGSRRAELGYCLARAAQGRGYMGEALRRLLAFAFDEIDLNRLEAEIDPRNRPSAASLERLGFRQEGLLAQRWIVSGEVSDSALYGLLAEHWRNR
molecule,measurement,setting,value
NCCCCN [putrescine],Km,PA1472,30.7 ± 9.9 mM
same,Km,[1],8.7 ± 2.43 mM
N=C(N)c1ccc(/N=N/Nc2ccc(C(=N)N)cc2)cc1 [diminazene],IC50,SpeG,26.2 ± 3.7 µM
same,IC50,[2],21 ± 0.6 µM
B1,K0.5,[3],590.1 ± 30.8 µM
